# Patent US8202910B2 (Sequella, Inc., priority 2006, dated 2012)
# pIC50: −log10 of the molar value. Where two headings read alike, the source gives them in different places.
# Legend:
# [1] = test system: monkey kidney cells (Vero); assay: In vitro toxicity, Vero cells; format: cell-based; conditions: Primates
# Procedure: Twenty six compounds (including 37, 59 and 109) were tested in an in vitro model of toxicity using monkey kidney cells (Vero) and human cervical cancer cells (HeLa) using methods well known to those skilled in the art. The data from this toxicity testing and the MIC data were used to calculate a selectivity index (SI), the ratio of IC50:MIC (Table 15). Selectivity Indexes were ranging from 1.76 to 16.67.
# [2] = format: in vitro ADME; conditions: 6 h
# Procedure: (§1) Initially, analytical methods for determination of the compounds had been developed that allowed to carry out all the PK experiments, sec FIG. 29. Here is a brief description of the experiment: (1) plasma spiked with tested compounds and 10 uL of Terfenadine or plasma samples (200 uL) added; (2) ACN (2 mL) added to precipitate protein and spin at 2,500 rpm; (3) evaporate supernatant to dryness; (4) add 200 uL of the diluting solvent: methanol (with 0.1% of trifluoroacetic acid): ammonium acetate (80/20); (5) vortex, spin, and use supernatant; (6) run LC/MS/MS on Sciex API 3000.
# Biostability studies of the compounds in plasma were carried out using concentrations 1 and 15 mg/ml. The compounds were incubated for 1, 2, 3 & 6 hr at 37° C. (Table 18).
# [3] = in vivo; design: species or system mice; conditions: mouse
# Procedure: as §1
# Pilot PK study of the compounds 37, 59, and 109 in mice was conducted using a cassette dosing: all the three analogs were formulated together in saline at 1.5 mg/mL, and administered to mice simultaneously orally at 25 mg/kg, peritoneally at 6 mg/kg, and intravenously. […] Obtained data are presented on FIGS. 30, 31, and 32 (tested compounds were studied under the NCI′ indexation NSC) and summarized in Table 19.
# [4] = Toxicity, dose escalation study in mice; conditions: C57BL/6, mouse, in vivo
# Procedure: Toxicity was assessed using a dose escalation study. This study was performed with ten C57BL/6 mice per candidate. Every two days, the mice were administered an increased concentration of the drug, and monitored for detrimental effects. The administration scheme was 50, 100, 200, 400, 600, 800 and 1000 mg/kg.
# [5] = test system: M. bovis; assay: microbe, parasite or virus in culture; format: cell-based; conditions: Mycobacterium tuberculosis variant bovis
# [6] = test system: sigma receptor (sigma non-selective); assay: CEREP receptor binding, sigma; conditions: tested at 10 μM
# Source text: In vitro testing for safety pharmacology and early ADMET (Absorption, Distribution, Metabolism, Excretion, Toxicity) studies of compound 109 were contracted out to CEREP (15318 NE 95th Street, Redmond, Wash., 98052, USA www.cerep.com) under a service agreement and included evaluation of inhibitory binding to a panel of 27 standard receptors and three transporters (See FIG. 60 (Table 31) and FIG. 61 (Table 32)) which included: adenosine receptors (A1 and A2A), adrenergic receptors (alpha 1, alpha 2, beta 1), angiotensin II receptor (AT1), benzodiazapene receptor (BZD), bradykinin receptor (B2), cholecystokinin receptor (CCK1), dopamine receptors (D1, D2S), endothelin receptor (ETA), GABA receptor (GABA), glutamate receptor (NMDA), histamine receptor (H1 central), melanocortin receptor (MC4), muscarinic receptor (M, non-selective), neurokinin receptor (NK1), neuropeptide Y receptor (Y), nicotinic receptor (neuronal, alpha-BGTX-insensitive), opiate receptor (non-selective opiate), orphanin receptor (ORL1), phencyclidine receptor (PCP), serotonin receptor (5-HT), sigma receptor (sigma non-selective), steroid receptor (glucocorticoid receptor, GR), and NE, DA, and 5-HT transporters.
# The specific ligand binding to the receptors is defined as the difference between the total binding and the nonspecific binding determined in the presence of an excess of unlabelled ligand.
# [7] = test system: RIF^R M. tuberculosis isolate 2482; assay: microbe, parasite or virus in culture; format: cell-based; conditions: Mycobacterium tuberculosis, read-out: MIC (BACTEC)
# [8] = Metabolism by human liver microsomes; format: in vitro ADME; conditions: after 40 min incubation
# Source text: Two of the groups contained oxidized metabolites. […] Based on the finding that SQ109 was metabolized rapidly by CYP, it is possible that its antimycobacterial activity may come from one of its metabolites. It is conceivable that SQ109 is a prodrug and requires activation by mycobacterial CYP. We speculate that when SQ109 is used in combination with rifampicin, the latter induces certain CYP activity within the Mycobacteria. Elevated CYP activity activates the SQ109 prodrug more efficiently, resulting in an apparent synergistic activity of the two drugs.
# [9] = test system: M. chelonae group (M. chelonae and M. abscessus); assay: Spectrum of activity MIC, rapid-grower, broth microdilution (NCCLS M24-A); format: cell-based; conditions: Mycobacteroides chelonae; three strains tested
# [10] = test system: M. kansasii; assay: Spectrum of activity MIC, MOTT, agar proportion method; format: cell-based; conditions: Mycobacterium kansasii; three tested
structure (smiles),measurement,setting,value
"CC(C)=CCC/C(C)=C/CNCCNC1C2CC3CC(C2)CC1C3 (stereo not shown) [Compound 109, N-Geranyl-N′-(2-adamanthyl)ethane-1,2-diamine]",pIC50,[1],4.59
same,Biostability in plasma (% ↓),[2]; dog,40% ↓
same,Biostability in plasma (% ↓),[2]; human,30% ↓
same,Biostability in plasma (% ↓),[2]; mouse,stable
same,Biostability in plasma (% ↓),[2]; rat,stable
same,AUC,"[3]; ip, 6 mg/kg",1100 ng·h/mL
same,Cmax,"[3]; ip, 6 mg/kg",935 ng/mL
same,Urine excretion (%),"[3]; ip, 6 mg/kg",<0.01%
same,bioavailability,"[3]; ip, 6 mg/kg",55%
same,half-life,"[3]; ip, 6 mg/kg",4.4 h
same,AUC,"[3]; iv, 3 mg/kg",1010 ng·h/mL
same,Cmax,"[3]; iv, 3 mg/kg",1190 ng/mL
same,Urine excretion (%),"[3]; iv, 3 mg/kg",.92%
same,clearance,"[3]; iv, 3 mg/kg",54 mL/min/kg
same,half-life,"[3]; iv, 3 mg/kg",5.5 h
same,AUC,"[3]; po, 25 mg/kg",655 ng·h/mL
same,Cmax,"[3]; po, 25 mg/kg",227 ng/mL
same,bioavailability,"[3]; po, 25 mg/kg",2.7%
same,tolerated dose,[4],800 mg/kg
same,MIC,[5],0.25 µg/mL
same,inhibition of control specific binding,[6],106%
same,MIC,[7],0.32 µg/mL
same,SQ109 remaining,[8],8%
same,MIC,[9],16 µg/mL
same,MIC,[10],16 µg/mL
